Source: ChEMBL document CHEMBL1141473, “Tricyclic HIV integrase inhibitors: potent and orally bioavailable C5-aza analogs” (Bioorg Med Chem Lett, 2008)
pEC50, pIC50: −log10 of the molar value. Converted amounts (≈) assume the structure as drawn.

Legend:
[1] = Inhibition of HIV integrase strand transfer activity; design: species or system Human immunodeficiency virus
[2] = system: Human immunodeficiency virus; assay: Antiviral activity against HIV in MT2 cells in presence of 35 mg/mL human serum albumin; assay type: functional, organism-based; conditions: Human immunodeficiency virus 1, MT2
[3] = system: Human immunodeficiency virus 1; assay: Antiviral activity against HIV1 3B in MT2 cells after 5 days; assay type: functional, organism-based; conditions: Human immunodeficiency virus 1, 3B, MT2, 120 h
[4] = Aqueous solubility at pH 7.3; assay type: physicochemical
[5] = Oral bioavailability in rat; assay type: ADME, organism-based; conditions: in vivo
[6] = Half life in iv dosed rat; assay type: ADME, organism-based; conditions: in vivo
[7] = Total clearance in iv dosed rat; assay type: ADME, organism-based; conditions: in vivo
[8] = Oral bioavailability in dog; assay type: ADME, organism-based, Canis lupus familiaris; conditions: in vivo
[9] = Half life in iv dosed dog; assay type: ADME, organism-based, Canis lupus familiaris; conditions: in vivo
[10] = Total clearance in iv dosed dog; assay type: ADME, organism-based, Canis lupus familiaris; conditions: in vivo

O=C1c2c(c(C(=O)N3CCOCC3)c3cccnc3c2O)CN1Cc1ccc(F)cc1
pIC50 [1]: 7.30
pEC50 [2]: 7.27

Cc1nnc(C(=O)NC(C)(C)c2nc(C(=O)NCc3ccc(F)cc3)c(O)c(=O)n2C)o1
pIC50 [1]: 7.57
pEC50 [3]: 8.22

CC(=O)N(C)c1c2c(c(O)c3ncccc13)C(=O)N(Cc1ccc(F)cc1)C2
pIC50 [1]: 7.00
pEC50 [3]: 7.33

CN(C)C(=O)N(C)c1c2c(c(O)c3ncccc13)C(=O)N(Cc1ccc(F)cc1)C2
pIC50 [1]: 7.15
pEC50 [3]: 8.00
solubility [4]: 844 µM (≈ 345 µg/mL)

CN(C)C(=O)C(=O)N(C)c1c2c(c(O)c3ncccc13)C(=O)N(Cc1ccc(F)cc1)C2
pIC50 [1]: 6.58
pEC50 [3]: 7.51

O=C1c2c(c(N3CCCS3(=O)=O)c3cccnc3c2O)CN1Cc1ccc(F)cc1
pIC50 [1]: 7.89
pEC50 [3]: 8.85
pEC50 [2]: 7.31
solubility [4]: 2.8 µM (≈ 1.2 µg/mL)
bioavailability [5]: 4%
half-life [6]: 36 min
clearance [7]: 25.5 mL/min/kg
bioavailability [8]: 8.3%
half-life [9]: 48 min
clearance [10]: 5 mL/min/kg

CN(C)S(=O)(=O)N(C)c1c2c(c(O)c3ncccc13)C(=O)N(Cc1ccc(F)cc1)C2
pIC50 [1]: 7.21
pEC50 [3]: 8.51
pEC50 [2]: 8.08
solubility [4]: 4.5 µM (≈ 2 µg/mL)
bioavailability [5]: 13%
half-life [6]: 54 min
clearance [7]: 3.83 mL/min/kg
bioavailability [8]: 16%
half-life [9]: 270 min
clearance [10]: 5.67 mL/min/kg
